Test results: patent publication US20120225949A1, “COMPOSITIONS AND METHODS FOR TREATING BIPOLAR DISORDER” (priority 2009, published 2012)

Columns and labels:
[1] = cited from earlier work
[2] = test system: PCP site of the NMDA receptor; conditions: (S)- versus (R)-ketamine; cited from earlier work
[3] = test system: Childhood-Onset Bipolar Disorder With FOH; assay: Ketamine treatment of childhood-onset bipolar disorder with FOH (single-subject case report); format: in vivo, human; conditions: 2 intranasal puffs of ketamine
Text: Subject is a child referred by their parents for psychiatric care to address their intense and often violent rages.
Subject has had episodic rages that have escalated in frequency and intensity since their adoption at 18 months. They have always experienced extreme separation anxiety but their aggression has shifted from themself toward their parents since starting school. The abuse towards their parents has included hitting, kicking, biting, and propelling objects. Parents came for consultation for fear that Subject will become more dangerous as they age.
Subject is currently on seroquel—225 mg (50 mg time release mornings, 25 mg afternoon, 150 mg time release evenings), lithium 600 mg (300 mg mornings and evenings), and 2 intranasal puffs of ketamine.

[4] = cited from earlier work; remark: listed apart in the source
[5] = Subject's earlier response to sedative/analgesic drugs (medical history); conditions: child, around adenoid removal

CN[C@]1(c2ccccc2Cl)CCCCC1=O [(S)-ketamine]
induction of drowsiness ([1]; comparison of enantiomers): more strongly than the (R) enantiomer | affinity for the PCP site of the NMDA receptor relative to (R)-ketamine [2]: about four

CN[C@@]1(c2ccccc2Cl)CCCCC1=O [(R)-ketamine]
hallucinogenic effect ([1]; in vivo): hallucinogenic

CNC1(c2ccccc2Cl)CCCCC1=O (stereo not drawn) [ketamine, [(2-2-chlorophenyl)-2-(methylamino)-cyclohexanone]]
coordination [3]: improved coordination | coping with transitions [3]: able to cope with transitions without the aid of transitional rituals | dependence on transitional objects [3]: decreased to the rare occasion | hallucinations [3]: complete remission | hoarding behavior [3]: ceased | motion sickness [3]: no more motion sickness | night sweats [3]: no longer complains of night sweats | physical well-being [3]: much improvement | sleep [3]: improved greatly | speech [3]: improved with much greater regularity in coherence, tempo, volume, and clarity | thirst on awakening [3]: no longer awakens extremely thirsty | delusions ([3]; except the last few days of the ketamine cycle): subsided | aggression ([3]; returns on occasion the few days prior to next administration): nearly disappeared | dreams ([3]; subject's report): “good dreams” have replaced their “bad dreams.” | overall response after the use of ketamine ([3]; child, with seroquel 225 mg and lithium 600 mg): quite notable changes in body temperature, speech, levels of fear, sleep, attention, aggression, and psychosis/delusions | dose at which mild adverse effects (dysphoria and/or hallucinations, "ketamine dreams") can occur ([4]; dose of ketamine): greater than 50 mg | dose usually required for mild adverse effects (dysphoria and/or hallucinations) ([4]; total dose intranasally): greater than 100 mg

Cc1ncc2n1-c1ccc(Cl)cc1C(c1ccccc1F)=NC2 [Versid]
response of subject to drug (medical history) [5]: extreme hyperactivity instead of relaxation
